The source of these data is US10322097B2, “Treatment of subjects with multidrug-resistant cancer” (priority 2015, dated 2019).

Series [1] deals with A549 taxol-resistant lung cancer cells. The series can be described thus: Annexin V flow cytometry analysis of cell death. It is filed as cell-based, human. Particulars: 24 h. How it is done:
Annexin V flow cytometry analysis has been carried out. Cell death and viability were measured using an Annexin V staining kit (BD Biosciences, San Jose, Calif., USA).
Briefly, A549 taxol-resistant cancer cells were treated with 0.1-0.5 μM celastrol with or without 40 μM of taxol for 24 h. Cells were then harvested and analysed by multiparametric flow cytometry using FITC-Annexin V and propidium iodide staining (BD Biosciences, San Jose, Calif., USA) according to the manufacturer's instructions. Flow cytometry was then carried out using a FACSCalibur flow cytometer (BD Biosciences, San Jose, Calif., USA). Data acquisition and analysis was performed with CellQuest (BD Biosciences, San Jose, Calif., USA). Data were obtained from three independent experiments.
(In general: Flow cytometry measures light scatter and fluorescence of single cells or particles in a stream.)

Series [2] has as its system DLD-1 Bax-Bak+/+ colon cancer cells. The series can be described thus: MTT cytotoxicity assay, DLD-1 Bax-Bak+/+. The series is classed as cell-based. Particulars: Homo sapiens, DLD-1, 72 h, read-out: IC50 DLD-1 Bax-Bak+/+ colon cancer cells. How it is done:
(§1) Cell cultures and cytotoxicity assays have been used. Celastrol was dissolved in DMSO at a final concentration of 100 mmol/L and stored at −20° C. Cytotoxicity was assessed using the 3-(4,5-dimethylthiazol-2-yl)-2,5-diphenyltetrazolium bromide assay. 4000 cells from HCT116 p53^+/+ or p53^−/− colon cancer cells and DLD-1 Bax-Bak^+/+ or Bax-Bak^−/− colon cancer cells were seeded on 96-well plates per well. […] Subsequently, 10 μL of MTT reagents were added to each well and incubated at 37° C. for 4 hours followed by the addition of 100 μL solubilization buffer (10% SDS in 0.01 mol/L HCl) and overnight incubation. […] The percentage of cell viability was calculated using the following formula: Cell viability (%)=Cells number treated/Cells number DMSO control×100. Data were obtained from three independent experiments.
Background: Tetrazolium dyes change colour on reduction, which living cells bring about.

The subject of series [3] is A2780 (Ovary) cisplatin sensitive cancer cells. The series can be described thus: MTT cytotoxicity assay, A2780 cisplatin sensitive. The series is classed as cell-based, human. Conditions: Homo sapiens, A2780, 72 h, read-out: IC50 A2780 (Ovary) (Cisplatin sensitive). How it is done: (§2) Cell cultures and cytotoxicity assays have been used. Celastrol was dissolved in DMSO at a final concentration of 100 mmol/L and stored at −20° C. Cytotoxicity was assessed using the 3-(4,5-dimethylthiazol-2-yl)-2,5-diphenyltetrazolium bromide assay. 4000 cells from A2780 cisplatin sensitive/resistant ovarian cancer cells or SGC-7901 cisplatin sensitive/resistant gastric cancer cells were seeded on 96-well plates per well. After overnight pre-incubation, the cells were exposed to different concentrations of celastrol (0.039-100 μmol/L) or cisplatin for 3 days. Subsequently, 10 μL of MTT reagents were added to each well and incubated at 37° C. for 4 hours followed by the addition of 100 μL solubilization buffer (10% SDS in 0.01 mol/L HCl) and overnight incubation. Absorbance at 585 nm was determined from each well the next day. The percentage of cell viability was calculated using the following formula: Cell viability (%)=Cells number treated/Cells number DMSO control×100. Data were obtained from three independent experiments.

The test system of series [4] is A2780 (Ovary) taxol resistant cancer cells. The series can be described thus: MTT cytotoxicity assay, A2780 taxol resistant. The series is classed as cell-based, human. Conditions: for Resistant Factor: A2780 taxol resistant versus taxol sensitive. How it is done: (§3) Cell cultures and cytotoxicity assays have been used. Celastrol was dissolved in DMSO at a final concentration of 100 mmol/L and stored at −20° C. Cytotoxicity was assessed using the 3-(4,5-dimethylthiazol-2-yl)-2,5-diphenyltetrazolium bromide assay. 4000 cells from A549 (lung), A2780 (ovary), HCT-8 (colon) and MCF-7 (breast) cancer cells were seeded on 96-well plates per well. After overnight pre-incubation, the cells were exposed to different concentrations of celastrol (0.039-100 μmol/L) or taxol for 3 days. Subsequently, 10 μL of MTT reagents was added to each well and incubated at 37° C. for 4 hours followed by the addition of 100 μL solubilization buffer (10% SDS in 0.01 mol/L HCl) and overnight incubation. Absorbance at 585 nm was determined from each well the next day. The percentage of cell viability was calculated using the following formula: Cell viability (%)=Cells number treated/Cells number DMSO control×100. Data were obtained from three independent experiments.

In series [5] the test system is A2780 (Ovary) taxol sensitive cancer cells. The series can be described thus: MTT cytotoxicity assay, A2780 taxol sensitive. The series is classed as cell-based. Particulars: Homo sapiens, A2780, 72 h, read-out: IC50 A2780 (Ovary) (Taxol sensitive). How it is done: as §3
Series [6] has as its system HCT-8 (Colon) taxol resistant cancer cells. The series can be described thus: MTT cytotoxicity assay, HCT-8 taxol resistant. The series is classed as cell-based, human. How it is done:
as §3

Series [7] relates to DLD-1 Bax-Bak-/- colon cancer cells. The series can be described thus: MTT cytotoxicity assay, DLD-1 Bax-Bak-/-. The series is classed as cell-based. How it is done:
as §1

Series [8] relates to SGC-7901 (Gastric) cisplatin resistant cancer cells. The series can be described thus: MTT cytotoxicity assay, SGC-7901 cisplatin resistant. It is filed as cell-based, human. How it is done:
as §2

For series [9], the system named is MCF-7 (Breast) taxol resistant cancer cells. The series can be described thus: MTT cytotoxicity assay, MCF-7 taxol resistant. The series is classed as cell-based, human. How it is done:
as §3

In series [10] the test system is A2780 (Ovary) cisplatin resistant cancer cells. The series can be described thus: MTT cytotoxicity assay, A2780 cisplatin resistant. The series is classed as cell-based, human. How it is done: as §2
For series [11], the system named is MDA-MB-231/BCRP breast cancer cells. The series can be described thus: MTT cytotoxicity assay, MDA-MB-231/BCRP. It is filed as cell-based. How it is done: as §2, with “HEK293 and HEK293/ABCB5 kidney” for “A2780 cisplatin sensitive/resistant ovarian”, “MDA-MB-231 pcDNA and MDA-MB-231/BCRP breast” for “SGC-7901 cisplatin sensitive/resistant gastric”, “(0.1-10” for “(0.039-100”, “μmol/L)” for “μmol/L) or cisplatin”

Regarding `CC1=C(O)C(=O)C=C2C1=CC=C1[C@@]2(C)CC[C@@]2(C)[C@@H]3C[C@](C)(C(=O)O)CC[C@]3(C)CC[C@]12C` [Celastrol, celastrol], the “cytotoxicity (cell death, Annexin V)” value in series [1] (0.1-0.5 μM celastrol alone) is “limited cytotoxicity”. Further, in [1] (0.1-0.5 μM celastrol with 40 μM taxol), the “taxol-mediated cytotoxicity (cell death, Annexin V) on co-treatment” value was “significantly enhanced”. The IC50 in series [2] is 575 nM; in series [3], 525 nM; in series [4] (Homo sapiens, A2780, 72 h, read-out: IC50 A2780 (Ovary) (Taxol resistant)), 540 nM; in series [5], 902 nM; in series [6] (Homo sapiens, HCT-8, 72 h, read-out: IC50 HCT-8 (Colon) (Taxol resistant)), 553 nM; in series [7] (Homo sapiens, DLD-1, 72 h, read-out: IC50 DLD-1 Bax-Bak-/- colon cancer cells), 184 nM. Also, the IC50 is 1720 nM in series [8] (Homo sapiens, SGC-7901, 72 h, read-out: IC50 SGC-7901 (Gastric) (Cisplatin resistant)); 730 nM in [9] (Homo sapiens, MCF7, 72 h, read-out: IC50 MCF-7 (Breast) (Taxol resistant)); 543 nM in series [10] (Homo sapiens, A2780, 72 h, read-out: IC50 A2780 (Ovary) (Cisplatin resistant)); 6190 nM in series [11] (MDA-MB-231/BCRP, 72 h, MTT, 3 days). In addition, the “Resistant Factor” value in [4] turned out to be 0.60; in series [4] (listed as celastrol), 0.6; in series [6] (HCT-8 taxol resistant versus taxol sensitive), 0.59; in [7] (IC50 DLD-1 Bax-Bak-/- divided by IC50 DLD-1 Bax-Bak+/+), 0.32; in series [8] (SGC-7901 cisplatin resistant versus cisplatin sensitive), 0.88; in [9] (MCF-7 taxol resistant versus taxol sensitive) it was 0.65. Also, the “Resistant Factor” value in series [10] (A2780 cisplatin resistant versus cisplatin sensitive) was determined as 1.03; in series [11] (IC50 MDA-MB-231/BCRP divided by IC50 MDA-MB-231 pcDNA), 1.28.
